The term pKa denotes the pH at which an ionisable group is half protonated.

Bounds are passed on as bounds.

The conditions of data set [1]: two lines for one acid = two pKa values; cited from earlier work.
Data set [2] is described as follows: NO release from powdered acids hit by single 50 nL sodium nitrite droplets, measured with NO analyzer. As to conditions: Example 2; for Time to 90% AUC: 7 mg finely ground powder per well, 50 nL droplet of 6M NaNO2, air flow 500 mL/minute; for NO release kinetics: comparison in words, FIG. 12 and FIG. 13. How it is done:
Powdered acids of different acidity (TABLE 1) and reducing capacity, or mixtures at equal weight ratios thereof, were tested for their ability to promote NO release from concentrated aqueous solutions of sodium nitrite. Acids were finely ground and about 5-7 mg placed into wells of a reaction plate contained within a reaction chamber equipped with a microvalve capable of dispensing single 50 nL liquid droplets of sodium nitrite into each well. The reaction chamber was continuously flushed with air at defined flow rates and the NO concentration in the air measured with a […]® NO Analyzer 280i. When NO concentrations exceeded the measurement range of the NO analyzer, the air stream was diluted with a nitrogen stream of defined flow rate prior to measurement and the measured NO concentration corrected for the dilution factor. 50 ml of 6M NaNO2 stock solution was prepared and degassed for 15 minutes. 10 mL of the stock solution was filled into a liquid reservoir feeding a microvalve capable of dispensing single 50 nL liquid droplets sequentially into each of six wells of a reaction plate contained within a reaction chamber. The air flow rate through the reaction chamber was set to 500 mL/minute. The air flow was diluted with nitrogen gas to a flow rate of 1586 mL/minute to allow measurement of the entire NO peak with a […]® NO Analyzer 280i. The NO analyzer was calibrated using a 45 ppm NO calibration gas prior to the experiment. […] The microvalve fired a 50 nL droplet into each well. The timecourse of NO production was measured with the NO Analyzer. The following time parameters were analyzed for each NO peak: AUC, time to reaching 90% of the AUC, and maximum peak NO concentration.

Data set [3] in a line: NO release from croconic acid coated MAGNA nylon tape versus particulate croconic acid, single 50 nL droplets. As to conditions: single 50 nL droplets of 6M NaNO2. As to the method:
10 grams of croconic acid were milled for 5 minutes using a bench top micromill and sifted through a 32 µm sieve. 100 mg of milled acid were suspended into 1 mL of absolute MeOH supplemented with 2% v/v cornstarch and 0.05% v/v glycerol. The yellow-orange suspension was spread evenly as a single coat using an acid resistant brush onto a 5 mm by 18 inch MAGNA® hydrophobic nylon tape of 1 .2 µm pore size. The tape was air-dried for 30 min by suspending it horizontally at both ends. The croconic acid formed a dark yellow slightly powdery coating on top of the nylon membrane; the average surface density of croconic acid deposited on the tape was 2.66 mg/cm^2.
NO release in response to single 50 nL droplets of 6M NaNO2 is shown in FIG 14 and TABLE 3, compared to the NO release from croconic acid powder. The croconic acid coated tape produced 85.3% of the NO compared to the bulk croconic acid powder, based upon the AUC.
Particulate croconic acid of particle size < 20µm produced by dry-milling for 45 min was formulated as 500 mg/ml suspension in USP ethanol by 10 min of sonication with additives of 0.05% v/v glycerol and 2% v/v starch and coated onto MAGNA® hydrophobic nylon tape in two sequential air-dried coats, yielding an average croconic acid surface density of 4.42 mg/cm^2.
NO release in response to single 50 nL droplets of 6M NaNO2 is shown in FIG. 15 and TABLE 4, compared to the NO release from particulate croconic acid. The croconic acid coated tape yielded 93.9% of the NO compared to the bulk croconic acid powder.
In another example, the procedure of the preceding paragraph was repeated by suspending 350 mg of milled croconic acid in 1 mL of isopropanol and preparing two sequential air-dried coats on the MAGNA® hydrophobic nylon strip yielding a croconic acid deposited as a dark yellow coating on the nylon membrane. NO release in response to single 50 nL droplets of 6M NaNO2 is shown in FIG. 16 and TABLE 5, compared to the NO release from particulate croconic acid. The croconic acid coated tape yielded 84.7% of the NO compared to the bulk croconic acid powder.

For data set [4] the following is noted: cited from earlier work.

As for `O=C(O)C(O)c1c(F)c(F)cc(F)c1F` (centres unmarked) [2,3,5,6-Tetrafluoromandelic acid], the pKa in data set [1] was <<3.4.
Regarding `O=C(O)C(O)c1ccccc1F` (centres unmarked) [2-Fluoro-mandelic acid], the pKa in data set [1] is recorded as less than 3.4.
For `O=C1O[C@H]([C@@H](O)CO)C(O)=C1O` [Ascorbic Acid, reference compound], in data set [1], the pKa is reported as 11.6. Further, in data set [2], the “Time to 90% AUC” value worked out at 13.98 s; the NO release kinetics result is “slow, protracted and irregular”.
With `O=C(O)C(O)c1ccccc1` (centres unmarked) [Mandelic acid], the pKa in data set [1] is given as 3.37.
For the compound `O=C(O)C(Cl)(Cl)Cl` [trichlomacetic acid], the pKa in data set [1] is given as 0.77.
On to Croconic Acid, for which the “Time to 90% AUC” value is 1.1 s in data set [2]; 0.79 s in data set [3] (Example 4A, suspension in MeOH, single coat, 1.2 µm pore size tape); 0.85 s in data set [3] (Example 4B, particle size < 20µm, suspension in USP ethanol, two coats); 0.77 s in data set [3] (Example 4C, suspension in isopropanol, two coats). Also, the NO release kinetics entry in data set [2] was “superior NO release kinetics over ascorbic acid while releasing similar quantities of NO”.
nonylphenol ethoxylate [NP-9]: the surface tension in data set [4] (0.1 % v/v aqueous solution at 25°C) is listed as 30 Dynes/cm. In addition, the viscosity in data set [4] (at 25°C) was 243 cp.

The values are drawn from patent EP3479863B1, “COMPOSITIONS, METHODS AND ARTICLES CONCERNING PHARMACEUTICAL NITRIC OXIDE AND CONTROLLED PATIENT DELIVERY SYSTEMS THEREOF” (Mallinckrodt Pharmaceuticals Ireland Limited, priority 2010, dated 2012).
